Data reported in patent US11725036B2, “Modified lipidated relaxin B chain peptides and their therapeutic use” (Sanofi, priority 2018, dated 2023).
In brackets after ≈: the same amount, converted by molar mass. Like-named read-outs stand apart in the source and are kept apart here. Marks after values point to notes of the source that are not given here. Starred links: 1 amine or outer side, 2 acyl side, 3 side chain; linkers in the order of their positions; H or OH if unused. Non-standard residues stand in square brackets, D forms with d. Residues, ends and D or L forms follow the SMILES beside them. Groups on a side chain read outwards from the residue. *: point of attachment. X1 = CCCCCCCCCCCCCCCC(=O)N[C@@H](CCC(=O)N[C@@H](CCC(=O)N[C@@H](CCC(=O)NCCCOCCOCCOCCCNC(=O)CCC(=O)NCCCOCCOCCOCCCNC(=O)CCC(=O)NCCCOCCOCCOCCCN*)C(=O)O)C(=O)O)C(=O)O; X2 = CCCCCCCCCCCCCCCC(=O)N[C@@H](CCC(=O)N[C@@H](CCC(=O)N[C@@H](CCC(=O)NCCCOCCOCCOCCCNC(=O)CCC(=O)NCCCOCCOCCOCCCN*)C(=O)O)C(=O)O)C(=O)O; Suc = O=C(CCC(=O)[*:2])[*:1]; αMeK = C[C@](N)(CCCCN)C(=O)O; Aib = CC(C)(N)C(=O)O

What was measured:
RXFP1 = target: T1, RXFP1 (Homo sapiens, UniProt Q9HBX9); test: OVCAR5 cAMP assay (HTRF); assay type: cell-based; conditions: for EC50: OVCAR 5 cells expressing endogenous RXFP1, cAMP readout; for Emax: OVCAR 5 cells, maximal cAMP relative to H2-relaxin
T1 construct: OVCAR5 cells expressing endogenous RXFP1; endogenous in cells; host or cells: OVCAR5
T1 sequence (Q9HBX9 1-757): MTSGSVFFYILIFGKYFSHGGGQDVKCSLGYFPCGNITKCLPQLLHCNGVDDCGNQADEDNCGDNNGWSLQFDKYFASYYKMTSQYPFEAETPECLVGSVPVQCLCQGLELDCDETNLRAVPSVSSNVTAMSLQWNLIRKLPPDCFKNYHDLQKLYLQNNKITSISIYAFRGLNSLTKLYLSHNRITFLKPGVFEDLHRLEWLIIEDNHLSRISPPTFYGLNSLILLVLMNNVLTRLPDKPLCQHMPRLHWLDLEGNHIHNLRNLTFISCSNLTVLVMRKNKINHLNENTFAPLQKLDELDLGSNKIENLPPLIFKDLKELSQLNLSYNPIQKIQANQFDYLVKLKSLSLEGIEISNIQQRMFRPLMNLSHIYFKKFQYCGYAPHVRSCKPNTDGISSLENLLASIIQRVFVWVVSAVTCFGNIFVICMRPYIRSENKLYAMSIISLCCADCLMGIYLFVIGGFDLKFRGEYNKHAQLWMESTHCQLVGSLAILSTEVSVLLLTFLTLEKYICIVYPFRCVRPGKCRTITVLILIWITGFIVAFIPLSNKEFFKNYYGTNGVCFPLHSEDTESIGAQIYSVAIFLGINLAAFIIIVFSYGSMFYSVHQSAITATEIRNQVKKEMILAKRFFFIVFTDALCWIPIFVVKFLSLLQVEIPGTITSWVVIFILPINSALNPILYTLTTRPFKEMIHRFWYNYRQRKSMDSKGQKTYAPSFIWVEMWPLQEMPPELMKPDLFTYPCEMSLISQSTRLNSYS
Procedure, shortened: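 Endogenous RXFP1 in OVCAR5 cells, pretreated 40 min at 37° C with 1 mM IBMX, then exposed to increasing peptide concentrations in serum-free medium for 30 min at 37° C. cAMP read by HTRF; EC50 by variable-slope sigmoidal fit, Emax as % of H2-relaxin maximal cAMP in same run.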

[1] = Stability in human plasma; assay type: in vitro ADME; conditions: for Human Plasma stability % remaining: T = 0, 37° C., 5 μM; for remaining at 1 h, 5 μM / remaining at 4 h, 5 μM: human, plasma (sodium or lithium heparin), 37° C.
Description: (§1) Prior to the testing of stability in plasma (or blood) of a peptide batch, its purity (HPLC-UV) was determined.
Rat and Human plasma: anti-coagulant sodium or lithium heparin.
(§2) 100 μM solution of study compound in 50 mM phosphate buffer pH 7.4.
(§3) 950 μL plasma (or blood) was pre-incubated for 5 min at 37° C. 50 μL of compound stock solution was added. Final compound concentration=5 μM. Vortex and transfer 150 μL plasma (or blood) into an Eppendorf for each time point. The time points […] were carried out in duplicate for each species.
(§4) After incubation, 150 μL plasma (or blood) was extracted with 600 μL Acetonitrile containing 1% TFA. Said mixture was then vortexed and centrifuged 10 min at 14600 rpm. 200 μL supernatant was dried under N2. Sample was then reconstituted in 200 μL of H2O/CH3CN 98/2+0.1% FA+50 ng/ml Labetalol and analyzed using the analytical system used in solubility and stability studies.
(§5) For determination of the amount of the remaining peptide, the peak areas of the target compound at t0 and each time point […] were compared, resulting in “% remaining peptide”, following the equation: % remaining peptide=[(peak area peptide time)×100]/peak area peptide t0. The stability was expressed as “% remaining peptide”.

Stability in rat blood = assay type: in vitro ADME; conditions: for Rat blood stability % remaining: T = 0, 37° C., 5 μM; for remaining at 1 h, 5 μM / remaining at 4 h, 5 μM: rat, whole blood (sodium or lithium heparin), 37° C.
Description: as §1
Rat and Human blood: anti-coagulant sodium or lithium heparin.
as §2, §3, §4, §5

[2] = Solubility testing in buffer; assay type: physicochemical; conditions: target solubility 10.0 mg/ml
[3] = acetate buffer 50 mM pH 4.5, read-out: Solubility Acetate buffer pH 4.5
[4] = phosphate buffer 50 mM pH 7.4, read-out: Solubility phosphate buffer pH 7.4

Compound | EC50 (RXFP1) [nM] | Emax (RXFP1) [%] | Human Plasma stability % remaining [1] [%] | remaining at 1 h, 5 μM [1] [%] | remaining at 4 h, 5 μM [1] [%] | Rat blood stability % remaining (Stability in rat blood) | remaining at 1 h, 5 μM (Stability in rat blood) [%] | remaining at 4 h, 5 μM (Stability in rat blood) [%] | solubility [2, 3] [mg/mL] | solubility [2, 4] [mg/mL]
CCCCCCCCCCCCCCCC(=O)N[C@@H](CCC(=O)N[C@@H](CCC(=O)N[C@@H](CCC(=O)NCCCOCCOCCOCCCNC(=O)CCC(=O)NCCCOCCOCCOCCCNC(=O)CCC(=O)NCCCC[C@H](NC(=O)CNC(=O)[C@H](CCC(=O)O)NC(=O)C(C)(C)NC(=O)C(C)(C)NC(=O)[C@@H](NC(=O)[C@H](CCCCNC(C)=O)NC(=O)[C@H](C)NC(=O)[C@H](CCCNC(=N)N)NC(=O)[C@@H](NC(=O)[C@H](CCCCN)NC(=O)[C@H](CCC(=O)O)NC(=O)[C@H](CCCNC(=N)N)NC(=O)CNC(=O)[C@H](CCC(=O)O)NC(=O)[C@H](CC(C)C)NC(C)=O)C(C)C)[C@@H](C)CC)C(=O)N[C@@H](CO)C(=O)N[C@H](C(=O)N[C@@H](Cc1c[nH]c2ccccc12)C(=O)N[C@@H](CO)C(=O)NC(C)(C)C(=O)N[C@@H](CCCNC(=N)N)C(=O)N[C@@H](CCCCN)C(=O)N[C@@H](CCCCNC(C)=O)C(N)=O)[C@@H](C)O)C(=O)O)C(=O)O)C(=O)O [compound 4] (Ac-LEGREKVRAK(Ac)I[Aib][Aib]EGK([Suc-X2])STWS[Aib]RKK(Ac)-NH2) | 1.5 | 89 | 100 | 100 | 100 | 100* % | 102 | 86 | 9.63 (≈ 2350 µM) | 7.71 (≈ 1880 µM)
CCCCCCCCCCCCCCCC(=O)N[C@@H](CCC(=O)N[C@@H](CCC(=O)N[C@@H](CCC(=O)NCCCOCCOCCOCCCNC(=O)CCC(=O)NCCCOCCOCCOCCCNC(=O)CCC(=O)NCCCOCCOCCOCCCNC(=O)CCC(=O)NCCCC[C@H](NC(=O)CNC(=O)[C@H](CCC(=O)O)NC(=O)C(C)(C)NC(=O)C(C)(C)NC(=O)[C@@H](NC(=O)[C@H](CCCCNC(C)=O)NC(=O)[C@H](C)NC(=O)[C@H](CCCNC(=N)N)NC(=O)[C@@H](NC(=O)[C@H](CCCCN)NC(=O)[C@H](CCC(=O)O)NC(=O)[C@H](CCCNC(=N)N)NC(=O)CNC(=O)[C@H](CCC(=O)O)NC(=O)[C@H](CC(C)C)NC(C)=O)C(C)C)[C@@H](C)CC)C(=O)N[C@@H](CO)C(=O)N[C@H](C(=O)N[C@@H](Cc1ccccc1)C(=O)N[C@@H](CO)C(=O)N[C@@](C)(CCCCN)C(=O)N[C@@H](CCCNC(=N)N)C(=O)N[C@@H](C)C(=O)N[C@@H](CCCCNC(C)=O)C(N)=O)[C@@H](C)O)C(=O)O)C(=O)O)C(=O)O [compound 3] (Ac-LEGREKVRAK(Ac)I[Aib][Aib]EGK([Suc-X1])STFS[αMeK]RAK(Ac)-NH2) | 0.34 | 97 | 99 | 95 | 100 | 100* % | 95 | 84 | 11.1 (≈ 2550 µM) | 11.5 (≈ 2640 µM)
